19 compounds from US20120201749A1, “NP-1 Antagonists and Their Therapeutic Use” (priority 2009, published 2012) can be followed below.

In this assay the target is NP-1 (Homo sapiens, UniProt O14786). Description: Biotinylated-VEGF-A165 (bt-VEGF-A165) binding to NP-1. To be noted: for inhibition at 3 µM: read-out: Screen (% inhibition at 3 μM); for inhibition at 30 µM: read-out: Screen (% inhibition at 30 μM). The protocol:
Human prostate carcinoma DU145 cells were cultured in growth medium (RPMI 1640 containing 10% FBS and L-glutamine). DU145 cells were seeded at the density of 2×10^4 cells per well (96-well plates) in 0.1 ml growth medium and transfected with adenovirus vectors containing the full-length open-reading frame of human NP-1. The Ad.NP-1-transfected cells grew for 2 days prior to a binding assay.
Confluent Ad.NP-1-transfected cells in 96-well plates were washed twice with phosphate-buffered saline (PBS). The various concentrations of compounds diluted in binding medium (Dulbecco's modified Eagle's medium, 25 mM HEPES pH 7.3 containing 0.1% BSA) were added, followed by addition of 2 nM of bt-VEGF-A165. After 2 h of incubation at room temperature, the medium was aspirated and washed three times with PBS. The bound bt-VEGF-A165 to NP-1 was detected by streptavidin-horseradish peroxidase conjugates and the enzyme substrate, and measured using a Tecan Genios plate reader at A450 nm with a reference wavelength at A595 nm. Non-specific binding was determined in the presence of 100-fold excess unlabelled VEGF-A165.
The 96-well plates were pre-coated with NP1 protein at 3 μg/ml overnight at 4° C. On the following day, the plates were treated with blocking buffer (PBS containing 1% BSA) and washed three times with wash buffer (PBS containing 0.1% Tween-20). The various concentrations of compounds diluted in PBS containing 1% DMSO were added, followed by addition of 0.25 nM of bt-VEGF-A165. After 2 h of incubation at room temperature, the plates were washed three times with wash buffer. The bound bt-VEGF-A165 to NP-1 was detected by streptavidin-horseradish peroxidase conjugates and the enzyme substrate, and measured using a Tecan Genios plate reader at A450 nm with a reference wavelength at A595 nm. Nonspecific binding was determined in the absence of NP-1 coated wells of the plates.

NP-1, sequence (O14786 22-923): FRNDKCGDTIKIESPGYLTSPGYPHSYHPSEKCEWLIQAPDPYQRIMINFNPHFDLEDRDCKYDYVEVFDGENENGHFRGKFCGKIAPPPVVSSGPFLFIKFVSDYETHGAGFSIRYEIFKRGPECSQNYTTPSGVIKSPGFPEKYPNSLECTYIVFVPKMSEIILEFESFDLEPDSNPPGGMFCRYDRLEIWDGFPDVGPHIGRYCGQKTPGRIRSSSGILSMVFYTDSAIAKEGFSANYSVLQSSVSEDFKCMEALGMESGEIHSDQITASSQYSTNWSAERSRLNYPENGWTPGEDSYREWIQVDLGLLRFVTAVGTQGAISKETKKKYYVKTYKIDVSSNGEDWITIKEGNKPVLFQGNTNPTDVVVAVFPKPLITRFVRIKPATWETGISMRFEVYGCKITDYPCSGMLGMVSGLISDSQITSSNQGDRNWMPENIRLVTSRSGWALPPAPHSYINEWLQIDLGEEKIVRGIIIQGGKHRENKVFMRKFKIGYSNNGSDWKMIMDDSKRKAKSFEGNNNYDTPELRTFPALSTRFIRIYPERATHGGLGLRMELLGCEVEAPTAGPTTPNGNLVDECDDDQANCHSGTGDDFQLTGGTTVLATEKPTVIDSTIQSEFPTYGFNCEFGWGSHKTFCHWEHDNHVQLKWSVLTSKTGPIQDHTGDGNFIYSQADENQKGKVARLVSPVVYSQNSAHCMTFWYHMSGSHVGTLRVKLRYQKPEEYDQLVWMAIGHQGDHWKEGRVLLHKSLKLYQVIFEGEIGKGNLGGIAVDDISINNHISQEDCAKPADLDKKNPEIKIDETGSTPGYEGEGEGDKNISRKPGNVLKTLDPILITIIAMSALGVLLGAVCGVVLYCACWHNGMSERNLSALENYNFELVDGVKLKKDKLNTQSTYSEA

With `N=C(N)NCCC[C@H](NC(=O)c1sccc1NS(=O)(=O)c1cccc(NCc2csc(N3CCC(N4CCOCC4)CC3)n2)c1)C(=O)O` [Compound 60, (S)-5-guanidino-2-{[3-(3-{[2-(4-morpholin-4-yl-piperidin-1-yl)-thiazol-4-ylmethyl]-amino}-benzenesulfonylamino)-thiophene-2-carbonyl]-amino}-pentanoic acid], the IC50 (in general, the point on the concentration scale where inhibition reaches its midpoint) is 319 nM. Further, under “3 μM compound”, the inhibition (commonly the relative decrease from the control value, in per cent) at 3 µM is 70%. Besides, the inhibition at 30 µM (30 μM compound) was found to be 96%.
On to `Cc1ccnc(NCCNCc2cccc(-c3cc4c(c(S(=O)(=O)Nc5ccsc5C(=O)N[C@@H](CCCNC(=N)N)C(=O)O)c3)OCC4)c2)c1` [Compound 45, (S)-5-Guanidino-2-({3-[5-(3-{[2-(4-methyl-pyridin-2-ylamino)-ethylamino]-methyl}-phenyl)-2,3-dihydro-benzofuran-7-sulfonylamino]-thiophene-2-carbonyl}-amino)-pentanoic acid], for which the inhibition at 3 µM (3 μM compound) came to 81%.
`N=C(N)NCCC[C@H](NC(=O)c1sccc1NS(=O)(=O)c1cc(-c2ccccc2CN2CCN(Cc3ccncc3)CC2)cc2c1OCC2)C(=O)O` [Compound 8, (S)-5-Guanidino-2-[(3-{5-[2-(4-pyridin-4-ylmethyl-piperazin-1-ylmethyl)-phenyl]-2,3-dihydro-benzofuran-7-sulfonylamino}-thiophene-2-carbonyl)-amino]-pentanoic acid] displayed a half-inhibitory concentration (IC50) of 1800 nM. For the same compound, the inhibition at 30 µM (30 μM compound) came to 90%.
In the same order, the values of `N=C(N)NCCC[C@H](NC(=O)c1sccc1NS(=O)(=O)c1cc(-c2ccccc2CN2CCN(c3cccnc3)CC2)cc2c1OCC2)C(=O)O` [Compound 10, (S)-5-Guanidino-2-[(3-{5-[2-(4-pyridin-3-yl-piperazin-1-ylmethyl)-phenyl]-2,3-dihydro-benzofuran-7-sulfonylamino}-thiophene-2-carbonyl)-amino]-pentanoic acid] are 2000 nM and 97%.
`COC(=O)C1CCN(Cc2ccccc2-c2cc3c(c(S(=O)(=O)Nc4ccsc4C(=O)N[C@@H](CCCNC(=N)N)C(=O)O)c2)OCC3)CC1` [Compound 5, 1-(2-{7-[2-((S)-1-Carboxy-4-guanidino-butylcarbamoyl)-thiophen-3-ylsulfamoyl]-2,3-dihydro-benzofuran-5-yl}-benzyl)-piperidine-4-carboxylic acid methyl ester] came in with an IC50 of 14 nM. Moreover, the inhibition at 3 µM (3 μM compound) worked out at 92%. Besides, the inhibition at 30 µM (30 μM compound) stood at 100%.
As for `N=C(N)NCCC[C@H](NC(=O)c1sccc1NS(=O)(=O)c1cccc(NCc2csc(N3CCN(Cc4ccccn4)CC3)n2)c1)C(=O)O` [Compound 65, (S)-5-guanidino-2-{[3-(3-{[2-(4-pyridin-2-ylmethyl-piperazin-1-yl)-thiazol-4-ylmethyl]-amino}-benzenesulfonylamino)-thiophene-2-carbonyl]-amino}-pentanoic acid], the inhibition at 3 µM (3 μM compound) is 40%. Besides, for the setting “30 μM compound”, the inhibition at 30 µM stood at 90%.
In the same order, the values of `Cc1cc(CNc2nc(CNc3cccc(S(=O)(=O)Nc4ccsc4C(=O)N[C@@H](CCCNC(=N)N)C(=O)O)c3)cs2)no1` [Compound 67] are 44% and 90%.
On to `COC(=O)C1CCN(Cc2cccc(-c3cc4c(c(S(=O)(=O)Nc5ccsc5C(=O)N[C@@H](CCCNC(=N)N)C(=O)O)c3)OCC4)c2)CC1` [Compound 7, 1-(3-{7-[2-((S)-1-Carboxy-4-guanidino-butylcarbamoyl)-thiophen-3-ylsulfamoyl]-2,3-dihydro-benzofuran-5-yl}-benzyl)-piperidine-4-carboxylic acid methyl ester], for which the 50% inhibitory concentration (IC50) is 5 nM. Further, the inhibition at 3 µM (3 μM compound) was 94%.
Regarding `Cc1cc(CNCc2ccccc2-c2cc3c(c(S(=O)(=O)Nc4ccsc4C(=O)N[C@@H](CCCNC(=N)N)C(=O)O)c2)OCC3)no1` [Compound 26, (S)-5-Guanidino-2-({3-[5-(2-{[(5-methyl-isoxazol-3-ylmethyl)-amino]-methyl}-phenyl)-2,3-dihydro-benzofuran-7-sulfonylamino]-thiophene-2-carbonyl}-amino)-pentanoic acid], for the setting “3 μM compound”, the inhibition at 3 µM worked out at 55%. In addition, where the note is “30 μM compound”, the inhibition at 30 µM amounted to 100%.
`Cn1cncc1CNCc1cccc(-c2cc3c(c(S(=O)(=O)Nc4ccsc4C(=O)N[C@@H](CCCNC(=N)N)C(=O)O)c2)OCC3)c1` [Compound 36, (S)-5-Guranidino-2-({3-[5-(3-{[(3-methyl-3H-imidazol-4-ylmethyl)-amino]-methyl}-phenyl)-2,3-dihydro-benzofuran-7-sulfonylamino]-thiophene-2-carbonyl}-amino)-pentanoic acid] displayed a half-inhibitory concentration (IC50) of 320 nM. Also, the inhibition at 3 µM (3 μM compound) turned out to be 84%. Besides, where the note is “30 μM compound”, the inhibition at 30 µM was determined as 98%.
Turning to `N=C(N)NCCC[C@H](NC(=O)c1sccc1NS(=O)(=O)c1cc(-c2ccccc2CNCc2ccc(N)nc2)cc2c1OCC2)C(=O)O` [Compound 39, (S)-2-({3-[5-(2-{[(6-Amino-pyridin-3-ylmethyl)-amino]-methyl}-phenyl)-2,3-dihydro-benzofuran-7-sulfonylamino]-thiophene-2-carbonyl}-amino)-5-guanidino-pentanoic acid], for the setting “3 μM compound”, the inhibition at 3 µM is 61%.
As for `N=C(N)NCCC[C@H](NC(=O)c1sccc1NS(=O)(=O)c1cc(-c2ccccc2CNCc2ccccn2)cc2c1OCC2)C(=O)O` [Compound 18, (S)-5-Guanidino-2-({3-[5-(2-{[(pyridin-2-ylmethyl)-amino]-methyl}-phenyl)-2,3-dihydro-benzofuran-7-sulfonylamino]-thiophene-2-carbonyl}-amino)-pentanoic acid], the inhibition at 3 µM (3 μM compound) is 70%. Also, the inhibition at 30 µM (30 μM compound) is 100%.
The compound `N=C(N)NCCC[C@H](NC(=O)c1sccc1NS(=O)(=O)c1cc(-c2ccccc2CNCCc2cn[nH]c2)cc2c1OCC2)C(=O)O` [Compound 47, (S)-5-Guanidino-2-({3-[5-(2-{[2-(1H-pyrazol-4-yl)-ethylamino]-methyl}-phenyl)-2,3-dihydro-benzofuran-7-sulfonylamino]-thiophene-2-carbonyl}-amino)-pentanoic acid] yielded an IC50 of 130 nM. The inhibition at 3 µM (3 μM compound) is 86%.
In the case of `N=C(N)NCCC[C@H](NC(=O)c1sccc1NS(=O)(=O)c1cc(-c2ccccc2CN2CCC(N3CCOCC3)CC2)cc2c1OCC2)C(=O)O` [Compound 25, (S)-5-Guanidino-2-[(3-{5-[2-(4-morpholin-4-yl-piperidin-1-ylmethyl)-phenyl]-2,3-dihydro-benzofuran-7-sulfonylamino}-thiophene-2-carbonyl)-amino]-pentanoic acid], the IC50 was 635 nM. The inhibition at 3 µM (3 μM compound) came out at 83%. Further, the inhibition at 30 µM (30 μM compound) turned out to be 100%.
`N=C(N)NCCC[C@H](NC(=O)c1sccc1NS(=O)(=O)c1cc(-c2cccc(CN3CCC(N4CCOCC4)CC3)c2)cc2c1OCC2)C(=O)O` [Compound 38, (S)-5-Guanidino-2-[(3-{5-[3-(4-morpholin-4-yl-piperidin-1-ylmethyl)-phenyl]-2,3-dihydro-benzofuran-7-sulfonylamino}-thiophene-2-carbonyl)-amino]-pentanoic acid] displayed an IC50 of 295 nM. Moreover, the “Screen (% inhibition at 3 μM)” value (3 μM compound, 3 µM) amounted to 68%. Also, the “Screen (% inhibition at 30 μM)” value (30 μM compound, 30 µM) was determined as 93%.
With `N=C(N)NCCC[C@H](NC(=O)c1sccc1NS(=O)(=O)c1cc(-c2ccccc2CN2CCC(N)CC2)cc2c1OCC2)C(=O)O` [Compound 21, (S)-2-[(3-{5-[2-(4-Amino-piperidin-1-ylmethyl)-phenyl]-2,3-dihydro-benzofuran-7-sulfonylamino}-thiophene-2-carbonyl)-amino]-5-guanidino-pentanoic acid], the inhibition at 3 µM (3 μM compound) is 73%.
On to `N=C(N)NCCC[C@H](NC(=O)c1sccc1NS(=O)(=O)c1cc(-c2cccc(CNCc3ccccn3)c2)cc2c1OCC2)C(=O)O` [Compound 31, (S)-5-Guanidino-2-({3-[5-(3-{[(pyridin-2-ylmethyl)-amino]-methyl}-phenyl)-2,3-dihydro-benzofuran-7-sulfonylamino]-thiophene-2-carbonyl}-amino)-pentanoic acid], for which the 50% inhibitory concentration (IC50) was found to be 105 nM. Moreover, the inhibition at 3 µM (3 μM compound) amounted to 86%. In addition, the inhibition at 30 µM (30 μM compound) was 99%.
Consider `Cn1cncc1CNCc1ccccc1-c1cc2c(c(S(=O)(=O)Nc3ccsc3C(=O)N[C@@H](CCCNC(=N)N)C(=O)O)c1)OCC2` [Compound 23, (S)-5-Guanidino-2-({3-[5-(2-{[(3-methyl-3H-imidazol-4-ylmethyl)-amino]-methyl}-phenyl)-2,3-dihydro-benzofuran-7-sulfonylamino]-thiophene-2-carbonyl}-amino)-pentanoic acid], for which the inhibition at 3 µM (3 μM compound) is 58%. Further, where the note is “30 μM compound”, the inhibition at 30 µM was 97%.
`N=C(N)NCCC[C@H](NC(=O)c1sccc1NS(=O)(=O)c1cc(-c2cccc(CNCc3ncc[nH]3)c2)cc2c1OCC2)C(=O)O` [Compound 37] displayed an IC50 of 637 nM. Moreover, for the setting “3 μM compound”, the inhibition at 3 µM is 68%. In addition, the inhibition at 30 µM (30 μM compound) amounted to 90%.
